Reference: patent US20260256759A1, “CONCOMITANT ADMINISTRATION OF GLUCOCORTICOID RECEPTOR MODULATOR RELACORILANT AND CYP2C8 SUBSTRATES” (priority 2020, published 2026)

Target: T1, CYP2C8 (Homo sapiens, UniProt P10632)
T1 sequence (P10632 1-490): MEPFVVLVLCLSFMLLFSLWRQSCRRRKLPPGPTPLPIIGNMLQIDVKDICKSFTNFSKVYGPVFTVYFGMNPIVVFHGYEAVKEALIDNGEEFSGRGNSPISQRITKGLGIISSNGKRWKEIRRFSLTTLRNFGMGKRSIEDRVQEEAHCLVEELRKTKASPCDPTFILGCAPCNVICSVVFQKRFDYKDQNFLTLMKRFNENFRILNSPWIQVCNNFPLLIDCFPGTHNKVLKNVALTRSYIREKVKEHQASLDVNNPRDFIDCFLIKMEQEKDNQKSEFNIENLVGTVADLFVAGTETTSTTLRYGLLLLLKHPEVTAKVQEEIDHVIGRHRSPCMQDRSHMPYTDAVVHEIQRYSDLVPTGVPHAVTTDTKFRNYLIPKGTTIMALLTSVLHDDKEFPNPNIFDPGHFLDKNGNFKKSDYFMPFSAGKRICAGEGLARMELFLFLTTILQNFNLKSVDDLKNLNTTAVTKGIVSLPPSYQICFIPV
Assay: Clinical drug-drug interaction study in healthy volunteers (pioglitazone with/without relacorilant)
Details: Treatment E (with relacorilant 350 mg) vs Treatment B (alone)
Experimental: An open-label, crossover study was conducted in healthy subjects to determine the effect of relacorilant on the plasma exposure of pioglitazone, a known probe substrate CYP2C8. A single dose of 15 mg of pioglitazone was administered alone and pharmacokinetic (PK) samples were collected before dosing (0 hour) and at 0.5, 1, 1.5, 2, 2.5, 3, 4, 6, 8, 12, 18, 24, 36, 48, 60, and 72 hours post-dose. Relacorilant (350 mg) was then administered once a day for 10 consecutive days. On the following day, a single dose of 15 mg of pioglitazone was administered in combination with relacorilant 350 mg and pharmacokinetic (PK) samples were again collected at pre-dose through 72 hours post-dose at the same timepoints as described above. The plasma concentrations of pioglitazone and its metabolite, pioglitazone M4 were evaluated by validated bioanalytical assays on each dosing occasion of pioglitazone.

With CCc1ccc(CCOc2ccc(CC3SC(=O)NC3=O)cc2)nc1 (stereo not drawn) [Pioglitazone, pioglitazone] the “AUC0-tz, Ratio of Geometric LSMs (Test/Reference)” value was 74.71%, the “AUCinf, Ratio of Geometric LSMs (Test/Reference)” value was 74.83% and the “Cmax, Ratio of Geometric LSMs (Test/Reference)” value was 77.82%.
